Assay results as given in ChEMBL document CHEMBL3885881, “DrugMatrix”.

Species: Rattus norvegicus
Assay: DrugMatrix - Regimen: Daily Repeat
Type: toxicity, organism-based, Sprague-Dawley
Parameters: regimen Daily Repeat, gender Male, age 6-8 weeks
Conditions: in vivo, po, 56 mg/kg, route oral GAVAGE, […]
[1] = 72 h, tissue Plasma, dose level Low, time 3 day
[2] = 120 h, tissue Blood, dose level High, time 5 day
[3] = 120 h, tissue Blood, dose level Low, time 5 day
[4] = 120 h, tissue Plasma, dose level High, time 5 day
[5] = 120 h, tissue Plasma, dose level Low, time 5 day
[6] = tissue Blood, dose level High, time 28 day
[7] = tissue Plasma, dose level High, time 28 day

For `NC[C@@H]1O[C@H](O[C@H]2[C@@H](O)[C@H](O[C@@H]3[C@@H](O)[C@H](N)C[C@H](N)[C@H]3O[C@H]3O[C@H](CN)[C@@H](O)[C@H](O)[C@H]3N)O[C@@H]2CO)[C@H](N)[C@@H](O)[C@@H]1O` [FRAMYCETIN], the CREATININE [1] was 0.19 mg/dL, the GLUCOSE [1] was 156.33 mg/dL and the “LACTATE DEHYDROGENASE” value [1] was 107.33 u/L. For the same compound, the LIPASE [1] was 10.33 u/L, the PHOSPHORUS [1] was 10.8 mg/dL and the POTASSIUM [1] was 5.83 MEQ/L. The SODIUM [1] was 143.17 MEQ/L, the “TOTAL BILIRUBIN” value [1] was 0.1 mg/dL and the “TOTAL PROTEIN” value [1] was 5.97 G/DL. For the same compound, the “URIC ACID” value [1] was 0.4 mg/dL, the BASOPHIL [2] was 0.36% and the EOSINOPHIL [2] was 0.6%. For the same compound, the “ERYTHROCYTE COUNT” value [2] was 7.45 x10E6/uL, the HEMATOCRIT [2] was 49.44% and the HEMOGLOBIN [2] was 15.6 G/DL. For the same compound, the “LEUKOCYTE COUNT” value [2] was 6.84 x10E3/uL, the LYMPHOCYTE [2] was 82.08% and the “MEAN CORPUSCULAR HEMOGLOBIN” value [2] was 20.94 pg. The “MEAN CORPUSCULAR HEMOGLOBIN CONCENTRATION” value [2] was 31.58 G/DL, the “MEAN CORPUSCULAR VOLUME” value [2] was 66.34 fL and the MONOCYTE [2] was 1.68%. The NEUTROPHIL [2] was 14.3%, the “PLATELET COUNT” value [2] was 1274.6 x10E3/uL and the “ABSOLUTE BASOPHIL” value [3] was 0 CELLS/uL. For the same compound, the “ABSOLUTE EOSINOPHIL” value [3] was 0 CELLS/uL, the “ABSOLUTE LYMPHOCYTE” value [3] was 7805 CELLS/uL and the “ABSOLUTE MONOCYTE” value [3] was 76.67 CELLS/uL. The “ABSOLUTE SEGMENTED NEUTROPHIL” value [3] was 785 CELLS/uL, the BASOPHIL [3] was 0% and the EOSINOPHIL [3] was 0%. The “ERYTHROCYTE COUNT” value [3] was 5.67 x10E6/uL, the HEMATOCRIT [3] was 34.13% and the HEMOGLOBIN [3] was 13.3 G/DL. For the same compound, the “LEUKOCYTE COUNT” value [3] was 8.67 x10E3/uL, the LYMPHOCYTE [3] was 89.33% and the “MEAN CORPUSCULAR HEMOGLOBIN” value [3] was 23.47 pg. For the same compound, the “MEAN CORPUSCULAR HEMOGLOBIN CONCENTRATION” value [3] was 38.97 G/DL, the “MEAN CORPUSCULAR VOLUME” value [3] was 60.2 fL and the MONOCYTE [3] was 1%. The NEUTROPHIL [3] was 9.67%, the “NUCLEATED RED BLOOD CELLS” value [3] was 0 /100WBC and the “PLATELET COUNT” value [3] was 1077 x10E3/uL. For the same compound, the “ALANINE AMINOTRANSFERASE” value [4] was 29 u/L, the ALBUMIN [4] was 3.74 G/DL and the “ALKALINE PHOSPHATASE” value [4] was 336 u/L. For the same compound, the “ASPARTATE AMINOTRANSFERASE” value [4] was 73.8 u/L, the “BLOOD UREA NITROGEN” value [4] was 6.6 mg/dL and the CHLORIDE [4] was 109.6 MEQ/L. For the same compound, the CHOLESTEROL [4] was 60.6 mg/dL, the “CREATINE PHOSPHOKINASE” value [4] was 307 u/L and the CREATININE [4] was 0.28 mg/dL. It also gave a GLUCOSE [4] of 128.6 mg/dL, a PHOSPHORUS [4] of 13.88 mg/dL and a POTASSIUM [4] of 6.96 MEQ/L. The SODIUM [4] was 151.8 MEQ/L, the “TOTAL BILIRUBIN” value [4] was 0.16 mg/dL and the “TOTAL PROTEIN” value [4] was 6.22 G/DL. The “ALANINE AMINOTRANSFERASE” value [5] was 68.67 u/L, the ALBUMIN [5] was 4.03 G/DL and the “ALKALINE PHOSPHATASE” value [5] was 434 u/L. For the same compound, the “ASPARTATE AMINOTRANSFERASE” value [5] was 94.67 u/L, the “BLOOD UREA NITROGEN” value [5] was 12 mg/dL and the “CARBON DIOXIDE” value [5] was 26.33 mmol/L. The CHLORIDE [5] was 104 MEQ/L, the CHOLESTEROL [5] was 74.67 mg/dL and the “CREATINE PHOSPHOKINASE” value [5] was 481.67 u/L. The CREATININE [5] was 0.23 mg/dL, the GLUCOSE [5] was 156.33 mg/dL and the “LACTATE DEHYDROGENASE” value [5] was 224 u/L. The LIPASE [5] was 10.33 u/L, the PHOSPHORUS [5] was 10.57 mg/dL and the POTASSIUM [5] was 6.71 MEQ/L. For the same compound, the SODIUM [5] was 148.83 MEQ/L, the “TOTAL BILIRUBIN” value [5] was 0.17 mg/dL and the “TOTAL PROTEIN” value [5] was 6.03 G/DL. For the same compound, the “URIC ACID” value [5] was 1.13 mg/dL, the BASOPHIL [6] was 0.48% and the EOSINOPHIL [6] was 0.51%. The “ERYTHROCYTE COUNT” value [6] was 8.01 x10E6/uL, the HEMATOCRIT [6] was 48.92% and the HEMOGLOBIN [6] was 15.88 G/DL. The “LEUKOCYTE COUNT” value [6] was 12.82 x10E3/uL, the LYMPHOCYTE [6] was 83.46% and the “MEAN CORPUSCULAR HEMOGLOBIN” value [6] was 19.85 pg. The “MEAN CORPUSCULAR HEMOGLOBIN CONCENTRATION” value [6] was 32.47 G/DL, the “MEAN CORPUSCULAR VOLUME” value [6] was 61.12 fL and the MONOCYTE [6] was 1.54%. The NEUTROPHIL [6] was 12.95%, the “PLATELET COUNT” value [6] was 1208.1 x10E3/uL and the “ALANINE AMINOTRANSFERASE” value [7] was 26.9 u/L. For the same compound, the ALBUMIN [7] was 3.85 G/DL, the “ALKALINE PHOSPHATASE” value [7] was 200.9 u/L and the “ASPARTATE AMINOTRANSFERASE” value [7] was 62.4 u/L. For the same compound, the “BLOOD UREA NITROGEN” value [7] was 11 mg/dL, the CHLORIDE [7] was 107.1 MEQ/L and the CHOLESTEROL [7] was 54.5 mg/dL. For the same compound, the “CREATINE PHOSPHOKINASE” value [7] was 177.2 u/L, the CREATININE [7] was 0.38 mg/dL and the GLUCOSE [7] was 135.2 mg/dL. It also gave a PHOSPHORUS [7] of 11.16 mg/dL, a POTASSIUM [7] of 6.5 MEQ/L and an SODIUM [7] of 151.5 MEQ/L. The “TOTAL BILIRUBIN” value [7] was 0.22 mg/dL and the “TOTAL PROTEIN” value [7] was 6.52 G/DL.
